Consider 21 molecules from patent US20050101595A1, “N-containing cycloalkyl-substituted amino-thiazole derivatives and pharmaceutical compositions for inhibiting cell proliferation and methods for their use” (PFIZER INC., priority 2003, published 2005).

Counter-ions that a name gives are not always drawn. Bounds are passed on as bounds.

One experiment addresses CDK2/Cyclin A (Homo sapiens, UniProt P24941). Briefly: Inhibition of CDK2/Cyclin A Retinoblastoma Kinase Activity. It counts as biochemical. The following applies: for Ki: apparent Ki, CDK2/proteolyzed cyclin A, Rb fragment substrate, 25 μM ATP. In short, it runs like this:
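Percent inhibition is calculated against DMSO-only wells after subtracting no-enzyme background. The enzyme is human CDK2 complexed with proteolyzed cyclin A, used at 10 nM or 19 nM on an Rb fragment with 25 μM [32/33P]ATP, at pH 7.4 and 30° C.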

Experiment [1] has as its target human CDK4 and genetically truncated (1-264) cyclin D3 (Homo sapiens, UniProt P11802). Kind of experiment: Inhibition of CDK4/Cyclin D Retinoblastoma Kinase Activity. The following applies: for Ki: apparent Ki, CDK4/truncated cyclin D3, Rb fragment substrate, 25 μM ATP. It counts as biochemical. How it is done:
Cyclin-dependent kinase activity was measured by quantifying the enzyme-catalyzed, time-dependent incorporation of radioactive phosphate from [^32P]ATP or [^33P]ATP into a protein substrate. Unless noted otherwise, assays were performed in 96-well plates in a total volume of 50 μL, in the presence of 10 mM HEPES (N-[2-hydroxyethyl]piperazine-N′-[2-ethanesulfonic acid]) (pH 7.4), 10 mM MgCl2, 25 μM adenosine triphosphate (ATP), 1 mg/mL ovalbumin, 5 μg/mL leupeptin, 1 mM dithiothreitol, 10 mM β-glycerophosphate, 0.1 mM sodium vanadate, 1 mM sodium fluoride, 2.5 mM ethylene glycol-bis(β-aminoethyl ether)-N,N,N′N′-tetraacetic acid (EGTA), 2% (v/v) dimethylsulfoxide, and 0.03-0.4 μCi [^32/33P]ATP per reaction. Reactions were initiated with enzyme, incubated at 30° C., and terminated after 20 minutes by the addition of ethylenediaminetetraacetic acid (EDTA) to 250 mM. The phosphorylated substrate was then captured on a nitrocellulose or phosphocellulose membrane using a 96-well filtration manifold, and unincorporated radioactivity was removed by repeated washing with 0.85% phosphoric acid. Radioactivity was quantified by exposing the dried membranes to a phosphorimager.
Inhibition was measured relative to control wells that contained all reaction components including 2% (v/v) DMSO but no compound, after subtraction of background radioactivity measured in the absence of enzyme. Apparent Ki values of discrete compounds were measured by assaying enzyme activity in the presence of different inhibitor compound concentrations and subtracting the background radioactivity measured in the absence of enzyme. The kinetic parameters (kcat, Km for ATP) were measured for each enzyme under the usual assay conditions by determining the dependence of initial rates on ATP concentration. Inhibition data were fit to an equation for competitive inhibition using Kaleidagraph (Synergy Software), or were fit to an equation for competitive tight-binding inhibition using the software KineTic (BioKin, Ltd.).
Inhibition of CDK4/Cyclin D Retinoblastoma Kinase Activity:
A complex of human CDK4 and genetically truncated (1-264) cyclin D3 was purified using traditional biochemical chromatographic techniques from insect cells that had been co-infected with the corresponding baculovirus expression vectors (see e.g., Meijer and Kim, “Chemical Inhibitors of Cyclin-Dependent Kinases,” Methods in Enzymol,. vol. 283 (1997), pp. 113-128.). The enzyme complex (5 nM) was assayed with 0.3-0.5 μg of purified recombinant retinoblastoma protein fragment (Rb) as a substrate. The engineered Rb fragment (residues 386-928 of the native retinoblastoma protein; 62.3 kDa) contains the majority of the phosphorylation sites found in the native 106-kDa protein, as well as a tag of six histidine residues for ease of purification. Phosphorylated Rb substrate was captured by microfiltration on a nitrocellulose membrane and quantified using a phosphorimager as described above. For measurement of tight-binding inhibitors, the assay duration was extended to 60 minutes, during which the time-dependence of product formation was linear and initial rate conditions were met.

Another experiment has as its system HCT-116 cell line. Briefly: Inhibition of cell growth, tetrazolium salt (MTT) assay. Type of experiment: cell-based. The gist of the method: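 Growth inhibition by MTT reduction at 540 nm (0.2 mg/mL, 4 h at 37° C, formazan dissolved in DMSO), normalized to cells given only 0.5% v/v DMSO. HCT-116 cultures in McCoy's 5A were dosed 4 h post-plating and kept three to five days at 37° C, 5% CO2.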

Sequence of human CDK4 and genetically truncated (1-264) cyclin D3 (P11802 whole entry, the tested form may be a part): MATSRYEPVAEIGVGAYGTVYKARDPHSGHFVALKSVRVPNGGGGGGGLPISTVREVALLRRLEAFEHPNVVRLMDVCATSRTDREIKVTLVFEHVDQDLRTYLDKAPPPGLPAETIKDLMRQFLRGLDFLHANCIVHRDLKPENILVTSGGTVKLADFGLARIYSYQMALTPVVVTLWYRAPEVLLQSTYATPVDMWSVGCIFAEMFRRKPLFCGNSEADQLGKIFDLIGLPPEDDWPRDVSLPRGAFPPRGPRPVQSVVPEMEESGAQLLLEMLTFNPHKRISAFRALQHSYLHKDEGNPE
Sequence of human CDK4 and genetically truncated (1-264) cyclin D3 (P30281 1-264 partner): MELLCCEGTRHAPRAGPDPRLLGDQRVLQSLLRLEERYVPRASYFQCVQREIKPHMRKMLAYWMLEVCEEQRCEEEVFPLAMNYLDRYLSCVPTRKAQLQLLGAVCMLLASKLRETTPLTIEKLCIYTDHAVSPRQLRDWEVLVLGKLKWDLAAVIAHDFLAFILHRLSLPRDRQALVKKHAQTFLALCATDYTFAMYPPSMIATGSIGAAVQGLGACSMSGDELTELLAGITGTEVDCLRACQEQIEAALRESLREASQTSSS

On to `Cc1cccc(C(=O)N2CCC(Nc3nc(N)c(C(=O)c4c(F)cccc4F)s3)CC2)c1C` [Example R125], for which, on CDK2/Cyclin A (at 0.03 μM), the “CDK2 % Inhibition at 0.03 μM” value is 18%. The “CDK4 % Inhibition at 0.03 μM” value in experiment [1] (at 0.03 μM) came to 33%. For the same molecule, the “HCT-116 % Inhibition at 0.1 μM” value in the experiment on HCT-116 cell line (HCT-116 cells, at 0.1 μM) is on record as 0%. Moreover, in the experiment on HCT-116 cell line (HCT-116 cells), the “HCT-116 5 Inhibition at 0.25 μM” value was 42.

As to `Nc1nc(NC2CCN(C(=O)c3csc(C4COc5ccccc5O4)n3)CC2)sc1C(=O)c1c(F)cccc1F` (stereo not shown) [Example R57], the “CDK2 % Inhibition at 0.03 μM” value on CDK2/Cyclin A (at 0.03 μM) was 23%. The “CDK4 % Inhibition at 0.03 μM” value in experiment [1] (at 0.03 μM) was determined as 36%. Further, in the experiment on HCT-116 cell line (HCT-116 cells, at 0.1 μM), the “HCT-116 % Inhibition at 0.1 μM” value came out at 0%. Moreover, in the experiment on HCT-116 cell line (HCT-116 cells), the “HCT-116 5 Inhibition at 0.25 μM” value is given as 47.

Take `Nc1nc(NC2CCN(C(=O)c3ccccc3-c3ccccc3)CC2)sc1C(=O)c1c(F)cccc1F` [Example R123]: the “CDK2 % Inhibition at 0.03 μM” value at CDK2/Cyclin A (at 0.03 μM) is listed as 5%. Also, in experiment [1] (at 0.03 μM), the “CDK4 % Inhibition at 0.03 μM” value came out at 39%. In addition, the “HCT-116 % Inhibition at 0.1 μM” value in the experiment on HCT-116 cell line (HCT-116 cells, at 0.1 μM) came out at 0%. For the same molecule, the “HCT-116 5 Inhibition at 0.25 μM” value in the experiment on HCT-116 cell line (HCT-116 cells) is recorded as 38.

As for `CCCCOc1ccc(C(C)(C)CC(C)(C)C)cc1S(=O)(=O)N1CCC(Nc2nc(N)c(C(=O)c3c(F)cccc3F)s2)CC1` [Example P73], the “CDK2 % Inhibition at 0.03 μM” value on CDK2/Cyclin A (0.03 μM compound, Table 3) is reported as −28%. Moreover, the “CDK4 % Inhibition at 0.03 μM” value in experiment [1] (0.03 μM compound, Table 3) was 1%. In addition, in the experiment on HCT-116 cell line (0.1 μM compound, HCT-116, Table 3), the “HCT-116 % Inhibition at 0.1 μM” value worked out at 16%. Besides, the “HCT-116 % Inhibition at 0.25 μM” value with HCT-116 cell line (0.25 μM compound, HCT-116, Table 3) was 30%.

With `Nc1nc(NC2CCN(C(=O)c3ccc(Cl)nc3)CC2)sc1C(=O)c1c(F)cccc1F` [Example R20], the “CDK2 % Inhibition at 0.03 μM” value at CDK2/Cyclin A (at 0.03 μM) came to 59%. Besides, the “CDK4 % Inhibition at 0.03 μM” value in experiment [1] (at 0.03 μM) is on record as 85%. For the same molecule, the “HCT-116 % Inhibition at 0.1 μM” value in the experiment with HCT-116 cell line (HCT-116 cells, at 0.1 μM) was 0%. Besides, the “HCT-116 5 Inhibition at 0.25 μM” value with HCT-116 cell line (HCT-116 cells) is listed as 42.

On to `Nc1nc(NC2CCN(S(=O)(=O)c3ccc([N+](=O)[O-])cn3)CC2)sc1C(=O)c1c(F)cccc1F` [Example F29, 1-{4-Amino-2-[1-(5-nitro-pyridine-2-sulfonyl)-piperidin-4-ylamino]-thiazol-5-yl}-1-(2,6-difluoro-phenyl)-methanone], for which the Ki on CDK2/Cyclin A came to 1000 nM; in experiment [1] it was 400 nM.

Turning to `CS(=O)(=O)N1CCC(Nc2nc(N)c(C(=O)c3c(F)cccc3F)s2)C1` (stereo not shown) [Example F39, [4-Amino-2-(1-methanesulfonyl-pyrrolidin-3-ylamino)-thiazol-5-yl]-(2,6-difluoro-phenyl)-methanone], the Ki came to 520 nM at CDK2/Cyclin A and 330 nM in experiment [1].

On to `N#Cc1ccc(S(=O)(=O)N2CCC(Nc3nc(N)c(C(=O)c4c(F)cccc4F)s3)C2)cc1` (stereo not shown) [Example F38, 4-{3-[4-Amino-5-(2,6-difluoro-benzoyl)-thiazol-2-ylamino]-pyrrolidine-1-sulfonyl}-benzonitrile], for which the Ki at CDK2/Cyclin A is 99 nM; in experiment [1], 360 nM.

Regarding `CC1(C)CC(Nc2nc(N)c(C(=O)c3c(F)cccc3F)s2)CC(C)(C)N1` [Example A2, [4-Amino-2-(2,2,6,6-tetramethyl-piperidin-4-ylamino)-thiazol-5-yl]-(2,6-difluoro-phenyl)-methanone], the Ki at CDK2/Cyclin A is > 5000 nM; in experiment [1], > 2000 nM.

On to `COc1ccccc1/C=C\C(=O)N1CCC(Nc2nc(N)c(C(=O)c3c(F)cccc3F)s2)CC1` [Example D18, 1-{4-[4-Amino-5-(2,6-difluoro-benzoyl)-thiazol-2-ylamino]-piperidin-1-yl}3(Z)-(2-methoxy-phenyl)-propenone], for which the Ki at CDK2/Cyclin A amounted to 54 nM; in experiment [1] it was 18 nM.

For `Cc1ccc(C(=O)/C=C/C(=O)N2CCC(Nc3nc(N)c(C(=O)c4c(F)cccc4F)s3)CC2)cc1` [Example D9, 1-{4-[4-Amino-5-(2,6-difluoro-benzoyl)-thiazol-2-ylamino]-piperidin-1-yl}-4-p-tolyl-but-2(E)-ene-1,4-dione], the Ki on CDK2/Cyclin A is 510 nM; in experiment [1], 150 nM.

With `CCOC(=O)N1CCC(Nc2nc(N)c(C(=O)c3c(F)cccc3F)s2)CC1` [Example A1, 4-[4-Amino-5-(2,6-difluoro-benzoyl)-thiazol-2-ylamino]-piperidine-1-carboxylic Acid Ethyl Ester], the figures for the Ki (on CDK2/Cyclin A; in experiment [1]) were 190 nM and 82 nM, respectively.

For `Nc1nc(NC2CCN(C(=O)c3ccc(Br)cc3)C2)sc1C(=O)c1c(F)cccc1F` (stereo not shown) [Example C18, {4-Amino-2-[1-(4-bromo-benzoyl)-pyrrolidin-3-ylamino]-thiazol-5-yl}-(2,6-difluoro-phenyl)-methanone], the Ki was found to be 77 nM at CDK2/Cyclin A and 210 nM in experiment [1].

As to `Nc1nc(NC2CCN(S(=O)(=O)CCN3CCC(c4ccccc4)C3)CC2)sc1C(=O)c1c(F)cccc1F` (stereo not shown) [Example N5, (4-Amino-2-{1-[2-(3-phenyl-pyrrolidin-1-yl)-ethanesulfonyl]-piperidin-4-ylamino}-thiazol-5-yl)-(2,6-difluoro-phenyl)-methanone Hydrochloride Salt.], the Ki was 1.8 nM on CDK2/Cyclin A and 1.5 nM in experiment [1].

For `COc1ccc(Cl)cc1C(=O)N1CCC(Nc2nc(N)c(C(=O)c3c(F)cccc3F)s2)CC1` [Example D19, {4-Amino-2-[1-(5-chloro-2-methoxy-benzoyl)-piperidin-4-ylamino]-thiazol-5-yl}-(2,6-difluoro-phenyl)-methanone], the Ki came out at 105 nM at CDK2/Cyclin A and 79 nM in experiment [1].

Turning to `CC(C)NC(=O)N1CCC(Nc2nc(N)c(C(=O)c3c(F)cccc3F)s2)CC1` [Example B1, 4-[4-Amino-5-(2,6-difluoro-benzoyl)-thiazol-2-ylamino]-piperidine-1-carboxylic Acid Isopropylamide], the values for the Ki (on CDK2/Cyclin A; in experiment [1]) were 410 nM and 380 nM, respectively.

Turning to `Nc1nc(NC2CCN(S(=O)(=O)CCCn3ccnn3)CC2)sc1C(=O)c1c(F)cccc1F` [Example K3, 1-{4-Amino-2-[1-(3-triazol-1-yl-propane-1-sulfonyl)-piperidin-4-ylamino]-thiazol-5-yl}-1-(2,6-difluoro-phenyl)-methanone.], the Ki on CDK2/Cyclin A came to 4.4 nM; in experiment [1] it was 4 nM.

As for `N#Cc1ccc(S(=O)(=O)N2CC[C@H](Nc3nc(N)c(C(=O)c4c(F)cccc4F)s3)C2)cc1` [Example F40, 4-{3S-[4-Amino-5-(2,6-difluoro-benzoyl)-thiazol-2-ylamino]-pyrrolidine-1-sulfonyl}-benzonitrile], the results for the Ki (on CDK2/Cyclin A; in experiment [1]) were 58 nM and 380 nM, respectively.

`C[C@@H](NC(=O)N1CCC(Nc2nc(N)c(C(=O)c3c(F)cccc3F)s2)CC1)c1ccccc1` [Example B3, 4-[4-Amino-5-(2,6-difluoro-benzoyl)-thiazol-2-ylamino]-piperidine-1-carboxylic Acid (1R-Phenyl-ethyl)-amide]: the figures for the Ki (at CDK2/Cyclin A; in experiment [1]) were 190 nM and 420 nM, respectively.

As for `Nc1nc(NC2CCN(S(=O)(=O)c3ccc(Cl)nc3)CC2)sc1C(=O)c1c(F)cccc1F` [Example F21, 1-(4-Amino-2-[1-(6-chloro-pyridine-3-sulfonyl)-piperidin-4-ylamino]-thiazol-5-yl}-1-(2,6-difluoro-phenyl)-methanone], the Ki came out at 1.7 nM on CDK2/Cyclin A and 2.5 nM in experiment [1].

On to `COc1ccc(OC)c(NC(=O)N2CCC(Nc3nc(N)c(C(=O)c4c(F)cccc4F)s3)CC2)c1` [Example B4, 4-[4-Amino-5-(2,6-difluoro-benzoyl)-thiazol-2-ylamino]-piperidine-1-carboxylic Acid (2,5-Dimethoxy-phenyl)-amide], for which the Ki worked out at 66 nM on CDK2/Cyclin A and 62 nM in experiment [1].
